Laboratory results published in article PMC8080777, “Discovery, optimization, and evaluation of non-bile acid FXR/TGR5 dual agonists” (Scientific Reports, 2021).

Assays:
TGR5 = target: T1, TGR5 (Homo sapiens, UniProt Q8TDU6); settings: cited from earlier work
T1 construct: host or cells: CHO cells
T1 sequence (Q8TDU6 1-330): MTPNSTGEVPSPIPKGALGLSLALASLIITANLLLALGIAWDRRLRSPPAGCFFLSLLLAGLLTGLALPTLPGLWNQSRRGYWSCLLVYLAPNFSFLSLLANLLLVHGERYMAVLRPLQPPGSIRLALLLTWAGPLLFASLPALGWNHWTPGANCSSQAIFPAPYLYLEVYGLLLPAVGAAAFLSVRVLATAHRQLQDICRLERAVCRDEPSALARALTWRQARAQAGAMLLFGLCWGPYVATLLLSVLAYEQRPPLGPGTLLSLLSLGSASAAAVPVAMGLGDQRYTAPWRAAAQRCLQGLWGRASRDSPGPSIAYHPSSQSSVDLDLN

FXR = settings: cited from earlier work
PPAR gamma = target: T2, PPAR gamma (Homo sapiens, UniProt P37231); assay: Selectivity, NR functional assay; format: cell-based
T2 construct: Eurofine Cerep / Eurofine Panlabs Discovery Services
Excerpt: (§1) Compound 20p was screened against a broad panel of NRs and GPCRs to determine its agonist activity in vitro. […]
(§2) The selectivity tests of compound 20p were investigated by Eurofine Cerep (86600, Celle-Levescault, France) and Eurofine Panlabs Discovery Services (No. 25, Wugong, 6th Road, Wugu District, New Taipai City, Taiwan). Compound binding was caluculated as a % inhibition of the binding of radioactively labeled ligand specific for each target. Cellular agonist effect wa calculated as a % of control response to a known reference agonist for each target and cellular antagonist effect as caluculated as a % inhibition of control reference agonist response for each target at 30 µM of compound 20p.
(§3) 12.3%; CAR -2.5%, PPAR alpha 0.0%; PPAR delta -3.6%; PPAR gamma -1.0%; PXR 4.5%; ER alpha -16.6%; ER beta 17% at 30 µM.

PPAR delta = target: T3, PPAR delta (Homo sapiens, UniProt Q03181); assay: Selectivity, NR functional assay; format: cell-based
T3 construct: Eurofine Cerep / Eurofine Panlabs Discovery Services
Excerpt: as §1, §2, §3

LXR beta = target: T4, LXR beta (Homo sapiens, UniProt P55055); assay: Selectivity, NR functional assay; format: cell-based
T4 construct: Eurofine Cerep / Eurofine Panlabs Discovery Services
Excerpt: as §1, §2, §3

LXR alpha = target: T5, LXR alpha (Homo sapiens, UniProt Q13133); assay: Selectivity, NR functional assay; format: cell-based
T5 construct: Eurofine Cerep / Eurofine Panlabs Discovery Services
Excerpt: as §1, §2, §3

PXR = target: T6, PXR (Homo sapiens, UniProt O75469); assay: Selectivity, NR functional assay; format: cell-based
T6 construct: Eurofine Cerep / Eurofine Panlabs Discovery Services
Excerpt: as §1, §2, §3

CAR = target: T7, CAR (Homo sapiens, UniProt Q14994); assay: Selectivity, NR functional assay; format: cell-based
T7 construct: Eurofine Cerep / Eurofine Panlabs Discovery Services
Excerpt: as §1, §2, §3

PPAR alpha = target: T8, PPAR alpha (Homo sapiens, UniProt Q07869); assay: Selectivity, NR functional assay; format: cell-based
T8 construct: Eurofine Cerep / Eurofine Panlabs Discovery Services
Excerpt: as §1, §2, §3

GPCRs and NRs = assay: Broad panel of NRs and GPCRs; settings: in vitro agonist activity
Excerpt: as §1, §2, §3

GPR40 = target: T9, GPR40 (Homo sapiens, UniProt O14842); assay: Selectivity, cellular functional assay; format: cell-based
T9 construct: Eurofine Cerep / Eurofine Panlabs Discovery Services
Excerpt: as §1, §2, §3

GPR120 = target: T10, GPR120 (Homo sapiens, UniProt Q5NUL3); assay: Selectivity, cellular functional assay; format: cell-based
T10 construct: Eurofine Cerep / Eurofine Panlabs Discovery Services
Excerpt: as §1, §2, §3

GPR119 = target: T11, GPR119 (Homo sapiens, UniProt Q8TDV5); assay: Selectivity, cellular functional assay; format: cell-based
T11 construct: Eurofine Cerep / Eurofine Panlabs Discovery Services
Excerpt: as §1, §2, §3

RXR alpha = target: T12, RXR alpha (Homo sapiens, UniProt P19793); assay: Selectivity, binding assay
T12 construct: Eurofine Cerep / Eurofine Panlabs Discovery Services
Excerpt: as §1, §2, §3

ER alpha = target: T13, ER alpha (Homo sapiens, UniProt P03372); assay: Selectivity, binding assay
T13 construct: Eurofine Cerep / Eurofine Panlabs Discovery Services
Excerpt: as §1, §2, §3

ER beta = target: T14, ER beta (Homo sapiens, UniProt Q92731); assay: Selectivity, binding assay
T14 construct: Eurofine Cerep / Eurofine Panlabs Discovery Services
Excerpt: as §1, §2, §3

T8 sequence (Q07869 whole entry): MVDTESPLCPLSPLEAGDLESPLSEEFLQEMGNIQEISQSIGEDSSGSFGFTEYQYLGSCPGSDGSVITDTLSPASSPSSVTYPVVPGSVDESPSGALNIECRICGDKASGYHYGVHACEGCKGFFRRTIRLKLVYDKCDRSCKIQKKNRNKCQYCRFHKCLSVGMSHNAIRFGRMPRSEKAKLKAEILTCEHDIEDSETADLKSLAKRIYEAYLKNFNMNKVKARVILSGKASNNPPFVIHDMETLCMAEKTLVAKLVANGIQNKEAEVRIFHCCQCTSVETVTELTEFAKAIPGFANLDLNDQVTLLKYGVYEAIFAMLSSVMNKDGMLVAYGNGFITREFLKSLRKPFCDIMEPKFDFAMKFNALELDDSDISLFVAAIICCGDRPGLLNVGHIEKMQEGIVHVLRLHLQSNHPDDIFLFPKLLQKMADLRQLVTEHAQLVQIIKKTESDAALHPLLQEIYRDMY
T11 sequence (Q8TDV5 whole entry): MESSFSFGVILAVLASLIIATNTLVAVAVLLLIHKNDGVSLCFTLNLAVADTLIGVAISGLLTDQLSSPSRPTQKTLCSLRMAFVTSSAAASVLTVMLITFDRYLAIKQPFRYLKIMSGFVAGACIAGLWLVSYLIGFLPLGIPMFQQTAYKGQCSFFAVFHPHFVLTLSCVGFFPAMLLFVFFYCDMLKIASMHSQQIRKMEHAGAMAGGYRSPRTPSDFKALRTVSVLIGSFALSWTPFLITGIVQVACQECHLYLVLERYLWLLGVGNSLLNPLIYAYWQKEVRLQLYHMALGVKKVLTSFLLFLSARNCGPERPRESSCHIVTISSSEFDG
T13 sequence (P03372 whole entry): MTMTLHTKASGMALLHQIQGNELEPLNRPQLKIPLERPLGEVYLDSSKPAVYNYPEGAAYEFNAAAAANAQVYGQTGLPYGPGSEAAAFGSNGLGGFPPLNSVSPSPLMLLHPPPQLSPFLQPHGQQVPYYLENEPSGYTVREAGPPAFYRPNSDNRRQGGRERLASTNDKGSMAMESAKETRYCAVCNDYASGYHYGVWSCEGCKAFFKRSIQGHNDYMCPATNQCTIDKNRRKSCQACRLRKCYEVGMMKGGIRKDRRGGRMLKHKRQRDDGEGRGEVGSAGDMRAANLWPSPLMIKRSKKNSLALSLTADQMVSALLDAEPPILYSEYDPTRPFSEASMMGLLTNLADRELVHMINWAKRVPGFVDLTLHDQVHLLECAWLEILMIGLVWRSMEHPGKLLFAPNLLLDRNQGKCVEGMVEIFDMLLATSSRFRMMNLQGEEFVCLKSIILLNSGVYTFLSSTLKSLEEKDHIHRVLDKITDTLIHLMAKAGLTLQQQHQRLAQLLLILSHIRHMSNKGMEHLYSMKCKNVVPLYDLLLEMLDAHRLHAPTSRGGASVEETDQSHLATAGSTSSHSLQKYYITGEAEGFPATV
T5 sequence (Q13133 whole entry): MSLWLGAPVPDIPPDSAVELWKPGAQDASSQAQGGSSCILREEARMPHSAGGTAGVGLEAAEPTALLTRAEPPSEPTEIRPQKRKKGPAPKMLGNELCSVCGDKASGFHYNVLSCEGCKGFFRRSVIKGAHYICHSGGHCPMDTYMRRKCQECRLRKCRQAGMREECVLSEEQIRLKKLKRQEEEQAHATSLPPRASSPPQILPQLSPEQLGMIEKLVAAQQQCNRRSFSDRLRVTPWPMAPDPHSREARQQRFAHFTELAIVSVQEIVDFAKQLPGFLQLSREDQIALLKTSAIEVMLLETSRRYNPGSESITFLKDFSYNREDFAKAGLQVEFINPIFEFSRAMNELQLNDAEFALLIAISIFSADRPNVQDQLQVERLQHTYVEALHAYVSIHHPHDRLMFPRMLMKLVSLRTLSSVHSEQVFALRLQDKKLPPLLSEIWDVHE
T9 sequence (O14842 whole entry): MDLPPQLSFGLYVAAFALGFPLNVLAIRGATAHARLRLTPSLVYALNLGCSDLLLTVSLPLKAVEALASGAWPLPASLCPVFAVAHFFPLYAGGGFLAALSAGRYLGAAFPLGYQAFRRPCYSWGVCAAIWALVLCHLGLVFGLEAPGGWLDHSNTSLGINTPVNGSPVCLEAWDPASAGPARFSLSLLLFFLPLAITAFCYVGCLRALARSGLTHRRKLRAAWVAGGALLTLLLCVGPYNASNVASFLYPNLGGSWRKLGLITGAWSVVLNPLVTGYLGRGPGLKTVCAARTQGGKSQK
T7 sequence (Q14994 whole entry): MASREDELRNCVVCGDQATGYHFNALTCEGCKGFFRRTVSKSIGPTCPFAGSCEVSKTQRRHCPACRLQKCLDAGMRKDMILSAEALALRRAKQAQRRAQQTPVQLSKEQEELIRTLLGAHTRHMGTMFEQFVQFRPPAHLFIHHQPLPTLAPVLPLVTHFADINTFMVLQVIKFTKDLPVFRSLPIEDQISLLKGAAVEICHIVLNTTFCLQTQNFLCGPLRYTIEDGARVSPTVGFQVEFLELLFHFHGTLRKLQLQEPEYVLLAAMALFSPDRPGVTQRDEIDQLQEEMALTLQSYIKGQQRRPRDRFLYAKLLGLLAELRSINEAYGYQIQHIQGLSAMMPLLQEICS
T14 sequence (Q92731 whole entry): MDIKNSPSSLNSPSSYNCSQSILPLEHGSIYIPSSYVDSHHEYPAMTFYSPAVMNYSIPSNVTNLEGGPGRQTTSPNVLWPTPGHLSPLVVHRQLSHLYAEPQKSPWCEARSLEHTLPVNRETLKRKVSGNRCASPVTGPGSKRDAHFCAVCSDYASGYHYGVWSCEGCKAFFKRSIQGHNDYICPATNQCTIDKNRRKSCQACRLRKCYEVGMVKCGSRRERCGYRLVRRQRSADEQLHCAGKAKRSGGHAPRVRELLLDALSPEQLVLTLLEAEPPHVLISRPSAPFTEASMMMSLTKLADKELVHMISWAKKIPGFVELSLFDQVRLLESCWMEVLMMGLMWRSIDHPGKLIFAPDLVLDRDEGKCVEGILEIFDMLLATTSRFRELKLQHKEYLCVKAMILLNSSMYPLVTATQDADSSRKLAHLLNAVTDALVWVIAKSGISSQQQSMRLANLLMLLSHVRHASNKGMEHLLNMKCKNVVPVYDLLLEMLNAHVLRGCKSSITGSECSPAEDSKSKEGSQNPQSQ
T4 sequence (P55055 whole entry): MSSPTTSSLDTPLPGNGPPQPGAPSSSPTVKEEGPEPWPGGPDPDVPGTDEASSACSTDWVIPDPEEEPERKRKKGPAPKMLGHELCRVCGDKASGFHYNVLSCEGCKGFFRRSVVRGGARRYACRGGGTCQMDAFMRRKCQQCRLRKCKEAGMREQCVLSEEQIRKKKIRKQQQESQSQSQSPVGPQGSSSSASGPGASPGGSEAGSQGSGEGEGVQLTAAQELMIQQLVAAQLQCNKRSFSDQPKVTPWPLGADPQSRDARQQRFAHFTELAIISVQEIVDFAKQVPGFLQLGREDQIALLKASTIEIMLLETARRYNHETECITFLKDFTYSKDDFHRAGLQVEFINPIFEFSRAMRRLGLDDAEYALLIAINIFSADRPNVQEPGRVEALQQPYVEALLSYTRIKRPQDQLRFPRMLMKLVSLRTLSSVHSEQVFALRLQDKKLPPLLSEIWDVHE
T10 sequence (Q5NUL3 whole entry): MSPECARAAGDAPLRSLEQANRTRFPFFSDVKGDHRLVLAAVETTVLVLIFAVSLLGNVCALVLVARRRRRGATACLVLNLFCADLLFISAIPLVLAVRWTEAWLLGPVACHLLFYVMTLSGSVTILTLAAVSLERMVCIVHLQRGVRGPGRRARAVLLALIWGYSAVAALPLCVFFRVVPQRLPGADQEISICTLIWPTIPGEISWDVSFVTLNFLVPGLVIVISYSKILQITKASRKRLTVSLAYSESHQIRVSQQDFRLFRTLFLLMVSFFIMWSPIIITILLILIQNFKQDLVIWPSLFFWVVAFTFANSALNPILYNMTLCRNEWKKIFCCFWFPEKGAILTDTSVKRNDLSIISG
T12 sequence (P19793 whole entry): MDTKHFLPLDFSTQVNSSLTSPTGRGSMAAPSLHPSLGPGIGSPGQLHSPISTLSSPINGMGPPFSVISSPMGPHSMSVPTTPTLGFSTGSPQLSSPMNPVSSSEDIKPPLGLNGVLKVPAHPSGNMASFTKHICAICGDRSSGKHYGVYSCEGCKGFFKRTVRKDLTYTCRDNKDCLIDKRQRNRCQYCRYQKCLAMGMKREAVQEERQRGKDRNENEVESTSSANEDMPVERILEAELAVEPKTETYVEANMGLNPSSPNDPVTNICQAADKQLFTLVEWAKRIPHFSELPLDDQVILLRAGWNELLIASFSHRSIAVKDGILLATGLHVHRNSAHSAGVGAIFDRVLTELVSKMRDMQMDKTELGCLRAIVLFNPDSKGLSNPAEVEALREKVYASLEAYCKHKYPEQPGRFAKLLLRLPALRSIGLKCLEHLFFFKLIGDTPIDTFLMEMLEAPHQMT
T3 sequence (Q03181 whole entry): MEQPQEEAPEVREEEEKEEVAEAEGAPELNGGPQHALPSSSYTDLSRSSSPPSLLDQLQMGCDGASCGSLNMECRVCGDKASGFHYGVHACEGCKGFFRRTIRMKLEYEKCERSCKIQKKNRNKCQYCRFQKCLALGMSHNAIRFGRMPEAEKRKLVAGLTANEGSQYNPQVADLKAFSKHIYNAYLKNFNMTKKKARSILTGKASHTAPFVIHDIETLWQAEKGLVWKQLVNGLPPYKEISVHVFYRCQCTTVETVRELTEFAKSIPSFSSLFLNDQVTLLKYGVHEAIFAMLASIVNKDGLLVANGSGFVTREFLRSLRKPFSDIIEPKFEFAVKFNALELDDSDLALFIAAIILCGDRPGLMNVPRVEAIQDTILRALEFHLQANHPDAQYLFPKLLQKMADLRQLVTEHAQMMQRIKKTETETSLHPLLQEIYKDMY

## COC(=O)/C=C/c1cccc(N(Cc2ccc(-c3ccc(N(C)C)cc3)cc2)C(=O)C2CCCCC2)c1 [Compound 7, Fexaramine, reference compound]
TGR5
  Reported TGR5 activity (in words): no significant agonist activity against TGR5
FXR
  Reported FXR activity (in words): specific and potent partial agonist against FXR

## COc1cc(Cl)cc(N(CC23CCC(c4ccc(OC)c(C#N)c4)(CC2)CC3)C(=O)c2ccncc2C)c1 [Compound 20p]
PPAR gamma; 30 µM, read-out: PPAR gamma agonist effect, % of control response to reference agonist
  activity at 30 µM: -1%
PPAR gamma; NR functional assay
  EC50: > 30 µM
PPAR delta; 30 µM, read-out: PPAR delta agonist effect, % of control response to reference agonist
  activity at 30 µM: -3.6%
PPAR delta; NR functional assay
  EC50: > 30 µM
LXR beta; 30 µM, read-out: LXR beta agonist effect, % of control response to reference agonist
  activity at 30 µM: 3.7%
LXR beta; NR functional assay
  EC50: > 30 µM
LXR alpha; 30 µM, read-out: LXR alpha agonist effect, % of control response to reference agonist
  activity at 30 µM: 0.2%
LXR alpha; NR functional assay
  EC50: > 30 µM
PXR; 30 µM, read-out: PXR agonist effect, % of control response to reference agonist
  activity at 30 µM: 4.5%
PXR; NR functional assay
  EC50: > 30 µM
CAR; 30 µM, read-out: CAR agonist effect, % of control response to reference agonist
  activity at 30 µM: -2.5%
CAR; NR functional assay
  EC50: > 30 µM
PPAR alpha; 30 µM, read-out: PPAR alpha agonist effect, % of control response to reference agonist
  activity at 30 µM: 0%
PPAR alpha; NR functional assay
  EC50: > 30 µM
GPCRs and NRs
  Off-target activity against GPCRs and NRs (in words): no significant off-target activity against GPCRs and NRs
GPR40; 30 µM, read-out: GPR40 cellular agonist effect, % of control response to reference agonist
  activity at 30 µM: 5.9%
GPR40; cellular functional assay
  EC50: > 30 µM
GPR120; 30 µM, read-out: GPR120 cellular agonist effect, % of control response to reference agonist
  activity at 30 µM: -5.2%
GPR120; cellular functional assay
  EC50: > 30 µM
GPR119; 30 µM, read-out: GPR119 cellular agonist effect, % of control response to reference agonist
  activity at 30 µM: 1.8%
GPR119; cellular functional assay
  EC50: > 30 µM
RXR alpha; 30 µM, read-out: RXR alpha binding, % inhibition of the binding of radioactively labeled ligand
  inhibition at 30 µM: -12.3%
RXR alpha; binding assay
  EC50: > 30 µM
ER alpha; 30 µM, read-out: ER alpha binding, % inhibition of the binding of radioactively labeled ligand
  inhibition at 30 µM: -16.6%
ER alpha; binding assay
  EC50: > 30 µM
ER beta; 30 µM, read-out: ER beta binding, % inhibition of the binding of radioactively labeled ligand
  inhibition at 30 µM: 17%
ER beta; binding assay
  EC50: > 30 µM
